Experimental data as given in BigSolDB 2.1.

CCCOC(=O)c1cc(O)c(O)c(O)c1
solubility (mole fraction)
Details	in acetone	in ethanol	in ethyl acetate	in isobutanol	in isopropanol	in methanol	in methyl acetate	in n-butanol	in n-propanol
293.15 K	0.291	0.182	0.222	0.189	0.253	0.226	0.244	0.243	0.264
298.15 K	0.311	0.201	0.24	0.209	0.273	0.242	0.264	0.259	0.283
303.15 K	0.33	0.222	0.258	0.229	0.293	0.258	0.285	0.275	0.302
308.15 K	0.35	0.244	0.276	0.25	0.314	0.276	0.306	0.293	0.321
313.15 K	0.369	0.266	0.295	0.272	0.336	0.295	0.329	0.312	0.34
318.15 K	0.387	0.288	0.314	0.295	0.359	0.316	0.351	0.333	0.36
323.15 K	0.404	0.311	0.333	0.319	0.383	0.339	0.375	0.356	0.382
328.15 K	0.412	0.323	0.343	0.331	0.396	0.351	0.39	0.368	0.394
333.15 K	0.419	0.334	0.353	0.344	0.409	0.363	0.402	0.381	0.406
